Assay results taken from patent US12404261B2, “Compounds and compositions for treating conditions associated with cGAS” (Novartis AG, priority 2020, dated 2025).

What follows are compounds tested against human truncated cGAS enzyme (147-522 human cGAS) (Homo sapiens (Human), UniProt Q8N884) (assay: Quantification of cGAS protein inhibition (cGAMP formation measured by LC-MS/MS)). Settings: reported for the potential mixture in solution of co-existing tautomers and/or racemates.
Type: biochemical
Method: A reagent buffer was prepared in filtered and autoclaved water according to the following: • 50 mM Tris-buffer pH 7.5 (1 M Tris-buffer pH 7.5, Invitrogen, Cat. No. 15567-027); • 50 mM NaCl (5 M NaCl, Sodium Chloride Solution, Sigma, 59222C-); • 5 mM MgCl2 (1 M MgCl2, Sigma, M1028); • 0.1 mM ZnCl2 (Zinc Chloride [7646-85-7], powder, Cell Culture Tested, Sigma, Z-0152); and • 0.001% Tween 20 (TWEEN 20, Sigma Aldrich, P1379-).
A buffer for the cGAS enzyme was prepared in filtered and autoclaved water according to the following: • 50 mM Tris-buffer pH 7.5; • 5 mM MgCl2; and • 0.001% Tween 20.
Compounds were dispensed to a […]. The human truncated cGAS enzyme (4.2 mg/mL 147-522 human cGAS, MW 43,909 g/mol) was stored in 50 mM Tris, 500 mM NaCl, 5% (v/v) glycerol at pH 8 and diluted in the cGAS buffer enzyme shortly before use. The enzyme solution was transferred into the reagent buffer to give a final concentration of 30 nM. The reaction was started by mixing the enzyme with ISD (a 45 bp double stranded DNA, MW 27,670 g/mol, 5 mM), GTP and ATP to a final concentration of 5 μM, 0.5 mM and 0.5 mM respectively in a final volume of 10 μl. The reaction plates were then centrifuged at 1000 rpm for 1 minute and incubated at room temperature for 1 h. After 1 h of incubation, [^5Ns]-2′3′-cGAMP to a final concentration of 200 nM and 30 μL of 100% acetonitrile/0.175% of TFA were added to the reaction mixture. The plates were centrifuged at 1000 rpm for 1 minute before being sealed for 3 seconds at 170° C. using a ThermoScientific sealer (ALPS™ 50V) and an aluminum sealing cover (Pierce Seal, 4titude, Product Code: 4TI-0531).
The concentration of cGAMP was measured on a LC-MS/MS system consisting of a THERMO Dionex Ultimate LC system with a high pressure pump, an autosampler, a column heating compartment (Reinach, Switzerland) and a SCIEX Triple Quad 5500 (Framingham, MA, USA) mass spectrometer for detection. The sample plates were centrifuged for 10 minutes at 2000 rpm. Up to three plates were placed in the autosampler for injection. An aliquot of 10 μL of each sample was injected on an XBridge BEH Amide 3.5 μm, 2.1×50 mm column (P/N 186004859) with an XBridge BEH Amide 5 μm 2.1×5 mm VanGuard Cartridge (P/N 186007760) pre-column (both WATERS, MA, USA) held at 40° C. An isocratic flow of 1.0 mL/min solvent (60% ACN, 8 mM ammonium acetate, 5 mM ammonium hydroxide, 0.04% acetic acid) was applied and sprayed into the ion source of the mass spectrometers. The MS parameters were optimized based on the properties of the compounds to be detected and run in positive multi-reaction mode (MRM) based on the mass transitions. LC and MS parameters were also optimized to allow for a sample-to-sample measuring time of approximately 75 sec and a run time of 8 hours per 384-well plate. All data were analyzed with Excel; and the dose response curves were generated using the auto fitting function of XLfit. The IC50 was determined by plotting the cGAMP concentration ratio (cGAMP divided by the internal standard [^15Ns]-2′3′-cGAMP) versus the concentration of compound.

human truncated cGAS enzyme (147-522 human cGAS), sequence (Q8N884 147-522): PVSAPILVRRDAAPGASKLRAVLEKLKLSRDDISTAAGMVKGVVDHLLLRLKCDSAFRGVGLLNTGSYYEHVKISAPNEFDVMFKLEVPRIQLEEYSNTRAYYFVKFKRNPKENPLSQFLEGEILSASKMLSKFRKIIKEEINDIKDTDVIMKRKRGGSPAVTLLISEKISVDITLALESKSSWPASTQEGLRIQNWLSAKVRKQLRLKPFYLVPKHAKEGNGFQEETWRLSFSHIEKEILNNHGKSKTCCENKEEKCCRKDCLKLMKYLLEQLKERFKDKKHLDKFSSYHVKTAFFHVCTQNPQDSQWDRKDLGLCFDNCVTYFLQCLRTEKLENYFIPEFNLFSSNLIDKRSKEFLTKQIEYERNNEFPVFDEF

First: FC(F)Oc1cc2c(-n3ccnc3)c(-c3nnc(C(F)(F)F)[nH]3)[nH]c2cc1Cl [Example 112, 6-chloro-5-(difluoromethoxy)-3-(1H-imidazol-1-yl)-2-(5-(trifluoromethyl)-4H-1,2,4-triazol-3-yl)-1H-indole]
Second: COc1cc2c(-n3ccnc3)c(-c3nnc(C(OC)C(F)F)[nH]3)n(C)c2c(F)c1Cl (stereo not shown) [Example 99, 6-chloro-2-(5-(2,2-difluoro-1-methoxyethyl)-4H-1,2,4-triazol-3-yl)-7-fluoro-3-(1H-imidazol-1-yl)-5-methoxy-1-methyl-1H-indole]
The IC50 of the first is 10-fold higher: 659 nM for the first, 64 nM for the second. The second is the more potent here.

`COc1cc2c(-n3ccnc3)c(-c3nnc(C(C)N(C)C)[nH]3)n(C)c2c(F)c1Cl` (stereo not shown) [Example 122, 1-(5-(6-chloro-7-fluoro-3-(1H-imidazol-1-yl)-5-methoxy-1-methyl-1H-indol-2-yl)-4H-1,2,4-triazol-3-yl)-N,N-dimethylethan-1-amine] and `CNC(C)c1nnc(-c2c(-n3ccnc3)c3cc(OC)c(Cl)c(F)c3n2C)[nH]1` (stereo not shown) [Example 123, 1-(5-(6-chloro-7-fluoro-3-(1H-imidazol-1-yl)-5-methoxy-1-methyl-1H-indol-2-yl)-4H-1,2,4-triazol-3-yl)-N-methylethan-1-amine] are within 1.5-fold of each other in IC50: 177 nM for the first, 121 nM for the second.

Compared with `COCC(c1nnc(-c2c(-n3ccnc3)c3cc(OC)c(Cl)c(F)c3n2C)[nH]1)n1ccnc1` (stereo not shown) [Example 100, 2-(5-(1-(1H-imidazol-1-yl)-2-methoxyethyl)-4H-1,2,4-triazol-3-yl)-6-chloro-7-fluoro-3-(1H-imidazol-1-yl)-5-methoxy-1-methyl-1H-indole], `CN[C@H](COC)c1nnc(-c2c(-n3ccnc3)c3cc(OC)c(Cl)c(F)c3n2C)[nH]1` [Example 125b, (S)-1-(5-(6-chloro-7-fluoro-3-(1H-imidazol-1-yl)-5-methoxy-1-methyl-1H-indol-2-yl)-4H-1,2,4-triazol-3-yl)-2-methoxy-N-methylethan-1-amine] is 2.8-fold higher in IC50: 65 nM for the first, 180 nM for the second. The first is the more potent here.

Going from `Cn1c(-c2nnc(CCO)[nH]2)c(-n2ccnc2)c2cc(O)c(Cl)c(C#N)c21` [Example 117, 6-chloro-5-hydroxy-2-(5-(2-hydroxyethyl)-4H-1,2,4-triazol-3-yl)-3-(1H-imidazol-1-yl)-1-methyl-1H-indole-7-carbonitrile] to `CCOc1cc2c(-n3ccnc3)c(-c3nnc(C(C)=O)[nH]3)n(C)c2c(F)c1Cl` [Example 101, 1-(5-(6-chloro-5-ethoxy-7-fluoro-3-(1H-imidazol-1-yl)-1-methyl-1H-indol-2-yl)-4H-1,2,4-triazol-3-yl)ethan-1-one], the IC50 rises from 169 nM to 721 nM (4.3-fold). The first is the more potent here.

Same assay, conditions: reported for the potential mixture of co-existing tautomers and/or racemates

`COc1cc2c(-n3ccnc3)c(-c3nnc(C(F)(F)CO)[nH]3)n(C)c2c(F)c1Cl` [Example 95, 2-(5-(6-chloro-7-fluoro-3-(1H-imidazol-1-yl)-5-methoxy-1-methyl-1H-indol-2-yl)-4H-1,2,4-triazol-3-yl)-2,2-difluoroethan-1-ol] and `COCC(=O)c1nnc(-c2c(-n3ccnc3)c3cc(OC)c(Cl)c(F)c3n2C)[nH]1` [Example 88, 1-(5-(6-chloro-7-fluoro-3-(1H-imidazol-1-yl)-5-methoxy-1-methyl-1H-indol-2-yl)-4H-1,2,4-triazol-3-yl)-2-methoxyethan-1-one] are within 1.5-fold of each other in IC50: 56 nM for the first, 75 nM for the second.

Going from `FC(F)(F)c1nnc(-c2cc3c(Cl)c(Cl)ccc3n2-c2cn[nH]c2)[nH]1` [Example 32, 4,5-dichloro-1-(1H-pyrazol-4-yl)-2-(5-(trifluoromethyl)-4H-1,2,4-triazol-3-yl)-1H-indole] to `Oc1c(Cl)ccc2c(-c3cn[nH]c3)c(-c3nnc(C(F)(F)F)[nH]3)[nH]c12` [Example 34, 6-chloro-3-(1H-pyrazol-4-yl)-2-(5-(trifluoromethyl)-4H-1,2,4-triazol-3-yl)-1H-indol-7-ol], the IC50 rises from 496 nM to 954 nM (1.9-fold).

Compared with `COc1cc2c(-n3ccnc3)c(-c3nnc(C(=O)N4CCN(C)CC4)[nH]3)n(C)c2c(F)c1Cl` [Example 46, (5-(6-chloro-7-fluoro-3-(1H-imidazol-1-yl)-5-methoxy-1-methyl-1H-indol-2-yl)-4H-1,2,4-triazol-3-yl)(4-methylpiperazin-1-yl)methanone], `COCC(O)c1nnc(-c2c(-n3ccnc3)c3cc(OC)c(Cl)c(C#N)c3n2C)[nH]1` (stereo not shown) [Example 53, 6-chloro-2-(5-(1-hydroxy-2-methoxyethyl)-4H-1,2,4-triazol-3-yl)-3-(1H-imidazol-1-yl)-5-methoxy-1-methyl-1H-indole-7-carbonitrile] is 2.1-fold lower in IC50: 138 nM for the first, 66 nM for the second. The second is the more potent here.

Compared with `COCC(c1nnc(-c2c(-c3cn[nH]c3)c3cc(OC)c(Cl)c(F)c3n2C)[nH]1)N(C)C` (stereo not shown) [Example 81, 1-(5-(6-chloro-7-fluoro-5-methoxy-1-methyl-3-(1H-pyrazol-4-yl)-1H-indol-2-yl)-4H-1,2,4-triazol-3-yl)-2-methoxy-N,N-dimethylethan-1-amine], `COc1cc2c(-c3cn[nH]c3)c(-c3nnc(N(C)C(C)=O)[nH]3)n(C)c2c(F)c1Cl` [Example 61, N-(5-(6-chloro-7-fluoro-5-methoxy-1-methyl-3-(1H-pyrazol-4-yl)-1H-indol-2-yl)-4H-1,2,4-triazol-3-yl)-N-methylacetamide] is 2.2-fold lower in IC50: 91 nM for the first, 41 nM for the second. The second is the more potent here.

Compared with `Cn1c(-c2nnc(C(F)(F)F)[nH]2)c(-c2cn[nH]c2)c2cc(C#N)c(Cl)c(F)c21` [Example 8, 6-chloro-7-fluoro-1-methyl-3-(1H-pyrazol-4-yl)-2-(5-(trifluoromethyl)-4H-1,2,4-triazol-3-yl)-1H-indole-5-carbonitrile], `COc1cc2c(-c3cn[nH]c3)c(-c3nnc(C(F)(F)F)[nH]3)n(C)c2c(F)c1Cl` [Example 1, 6-Chloro-7-fluoro-5-methoxy-1-methyl-3-(1H-pyrazol-4-yl)-2-(5-(trifluoromethyl)-4H-1,2,4-triazol-3-yl)-1H-indole] is 1.8-fold lower in IC50: 134 nM for the first, 74 nM for the second. The second is the more potent here.

Going from `COc1cc2c(-c3cn[nH]c3)c(-c3nnc(C(C)=O)[nH]3)n(C)c2c(F)c1Cl` [Example 60, 1-(5-(6-chloro-7-fluoro-5-methoxy-1-methyl-3-(1H-pyrazol-4-yl)-1H-indol-2-yl)-4H-1,2,4-triazol-3-yl)ethan-1-one] to `COc1cc2c(-c3cn[nH]c3)c(-c3nnc(C(F)(F)F)[nH]3)[nH]c2cc1Cl` [Example 24, 6-chloro-5-methoxy-3-(1H-pyrazol-4-yl)-2-(5-(trifluoromethyl)-4H-1,2,4-triazol-3-yl)-1H-indole], the IC50 rises from 32 nM to 69 nM (2.2-fold). The first is the more potent here.

`FC(F)(F)Cc1nnc(-c2[nH]c3c(Cl)c(Cl)ccc3c2-c2cn[nH]c2)[nH]1` [Example 13, 6,7-dichloro-3-(1H-pyrazol-4-yl)-2-(5-(2,2,2-trifluoroethyl)-4H-1,2,4-triazol-3-yl)-1H-indole] and `OCCc1nnc(-c2[nH]c3c(Cl)c(Cl)ccc3c2-c2cn[nH]c2)[nH]1` [Example 15, 2-(5-(6,7-dichloro-3-(1H-pyrazol-4-yl)-1H-indol-2-yl)-4H-1,2,4-triazol-3-yl)ethan-1-ol] are within 1.5-fold of each other in IC50: 178 nM for the first, 188 nM for the second.

Compared with `Clc1ccc2c(-c3cn[nH]c3)c(-c3nnc(Br)[nH]3)[nH]c2c1Cl` [Example 5, 2-(5-bromo-4H-1,2,4-triazol-3-yl)-6,7-dichloro-3-(1H-pyrazol-4-yl)-1H-indole], `COc1c(Cl)ccc2c(-c3cn[nH]c3)c(-c3nnc(C(F)(F)F)[nH]3)[nH]c12` [Example 17, 6-chloro-7-methoxy-3-(1H-pyrazol-4-yl)-2-(5-(trifluoromethyl)-4H-1,2,4-triazol-3-yl)-1H-indole] is 16-fold higher in IC50: 93 nM for the first, 1490 nM for the second.

`Oc1cc(-c2c(-c3nnc(C(F)(F)F)[nH]3)[nH]c3c(Cl)c(Cl)ccc23)n[nH]1` [Example 76, 3-(6,7-dichloro-2-(5-(trifluoromethyl)-4H-1,2,4-triazol-3-yl)-1H-indol-3-yl)-1H-pyrazol-5-ol] showed an IC50 of 4210 nM.
